Laboratory results taken from publication PMC12030706, “Novel ^177Lu-Labeled [Thz^14]Bombesin(6–14) Derivatives with Low Pancreas Accumulation for Targeting Gastrin-Releasing Peptide Receptor-Expressing Cancer” (Pharmaceuticals, 2025).

Key:
[1] = LogD7.4 measurement, shake flask method; type: physicochemical; settings: n-octanol/DPBS pH 7.4, n = 3
Protocol: The logD7.4 values of all the ^177Lu-labeled GRPR-targeted ligands were measured using the shake flask method as previously reported. An aliquot (~2 MBq) of the radiolabeled product was added to a mixture of n-octanol (3 mL) and DPBS (3 mL, pH 7.4), followed by 1 min vortexing and 15 min centrifugation at 5000 rpm. Samples of the n-octanol (1 mL) and buffer (1 mL) layers were collected, and the activity was counted using a gamma counter. The logD7.4 values were calculated using the following equation: logD7.4=log10[countsn−octanolphase/countsbutterphase]

[2] = Ex vivo biodistribution in PC-3 tumor-bearing mice; settings: mouse; for tissue to tissue ratio at 1 h / tissue to tissue ratio at 4 h / tissue to tissue ratio at 24 h / tissue to tissue ratio at 72 h / tissue to tissue ratio at 120 h: male, NOD.Cg-Rag1^tm1Mom Il2rg^tm1Wjl/SzJ (NRG), total radioactivity; for tissue to tissue ratio at 4 h / tissue uptake at 4 h: 4 h post-injection; for tissue to tissue ratio at 24 h / tissue uptake at 24 h: 24 h post-injection; for tissue to tissue ratio at 72 h / tissue uptake at 72 h: 72 h post-injection; for tissue to tissue ratio at 120 h / tissue uptake at 120 h: 120 h post-injection
Protocol: SPECT/CT imaging experiments were performed using an MILabs (Houten, The Netherlands) U-SPECT-II/CT scanner with a custom-made ultra-high-sensitivity big mouse collimator (2 mm pinhole size) following previously reported procedures. […] Male NOD.Cg-Rag1^tm1Mom Il2rg^tm1Wjl/SzJ (NRG) mice were used in these experiments because of their immunodeficient characteristics and excellent radiation tolerance. Mice were anaesthetized and subcutaneously implanted with 5 × 10^6 PC-3 prostate cancer cells (100 µL; 1:1 PBS/Matrigel) behind the left shoulder. SPECT/CT imaging and biodistribution studies were performed once the tumors reached a diameter of 5–8 mm, typically after approximately 4 weeks of growth.
For ex vivo biodistribution studies, the mice were injected with ~2–6 MBq of the radioligand. […] Blocking study was conducted at 1 h post-injection via co-injection of the radioligand with 100 μg of [D-Phe^6,Leu-NHEt^13,des-Met^14]Bombesin(6–14). Organs/tissues of interested were collected, weighed, and measured using an automatic gamma counter.

[3] = tumor/blood, Tumor/blood uptake ratio
[4] = tumor/kidney, Tumor/kidney uptake ratio
[5] = tumor/muscle, Tumor/muscle uptake ratio
[6] = tumor/pancreas, Tumor/pancreas uptake ratio
[7] = PC-3 tumor, Uptake in PC-3 tumor
[8] = adrenal glands, Uptake in adrenal glands
[9] = large intestine, Uptake in large intestine

CC(C)C[C@H](NC(=O)[C@H](Cc1cnc[nH]1)N(C)C(=O)CNC(=O)[C@@H](NC(=O)[C@H](C)NC(=O)[C@H](Cc1c[nH]c2ccccc12)NC(=O)[C@H](CCC(N)=O)NC(=O)[C@@H](Cc1ccccc1)NC(=O)CN1CCC(NC(=O)CN2CCN(CC(=O)O)CCN(CC(=O)O)CCN(CC(=O)O)CC2)CC1)C(C)(C)C)C(=O)N1CSC[C@H]1C(N)=O [[^177Lu]Lu-LW01110, metal not drawn]
logD [1]: -2.76 ± 0.1 | tissue to tissue ratio at 1 h ([2]; tumor/blood, Tumor/blood uptake ratio, 1 h blocked (co-injected with 100 µg [D-Phe6,Leu-NHEt13,des-Met14]Bombesin(6-14))): 5.32 ± 0.87 | tissue to tissue ratio at 1 h ([2]; tumor/blood, Tumor/blood uptake ratio, 1 h post-injection): 15.9 ± 1.55 | tissue to tissue ratio at 4 h [2, 3]: 234 ± 53.9 | tissue to tissue ratio at 24 h [2, 3]: 1220 ± 229 | tissue to tissue ratio at 72 h [2, 3]: 1330 ± 177 | tissue to tissue ratio at 120 h [2, 3]: 1310 ± 412 | tissue to tissue ratio at 1 h ([2]; tumor/kidney, Tumor/kidney uptake ratio, 1 h blocked (co-injected with 100 µg [D-Phe6,Leu-NHEt13,des-Met14]Bombesin(6-14))): 0.85 ± 0.1 | tissue to tissue ratio at 1 h ([2]; tumor/kidney, Tumor/kidney uptake ratio, 1 h post-injection): 2.96 ± 0.43 | tissue to tissue ratio at 4 h [2, 4]: 3.27 ± 0.89 | tissue to tissue ratio at 24 h [2, 4]: 4.86 ± 0.64 | tissue to tissue ratio at 72 h [2, 4]: 8.92 ± 1.62 | tissue to tissue ratio at 120 h [2, 4]: 11.3 ± 1.27 | tissue to tissue ratio at 1 h ([2]; tumor/muscle, Tumor/muscle uptake ratio, 1 h blocked (co-injected with 100 µg [D-Phe6,Leu-NHEt13,des-Met14]Bombesin(6-14))): 21.5 ± 3.27 | tissue to tissue ratio at 1 h ([2]; tumor/muscle, Tumor/muscle uptake ratio, 1 h post-injection): 76.2 ± 10.1 | tissue to tissue ratio at 4 h [2, 5]: 392 ± 101 | tissue to tissue ratio at 24 h [2, 5]: 651 ± 95 | tissue to tissue ratio at 72 h [2, 5]: 647 ± 311 | tissue to tissue ratio at 120 h [2, 5]: 776 ± 314 | tissue to tissue ratio at 1 h ([2]; tumor/pancreas, Tumor/pancreas uptake ratio, 1 h blocked (co-injected with 100 µg [D-Phe6,Leu-NHEt13,des-Met14]Bombesin(6-14))): 1.17 ± 0.31 | tissue to tissue ratio at 1 h ([2]; tumor/pancreas, Tumor/pancreas uptake ratio, 1 h post-injection): 0.99 ± 0.11 | tissue to tissue ratio at 4 h [2, 6]: 1.87 ± 0.37 | tissue to tissue ratio at 24 h [2, 6]: 2.22 ± 0.25 | tissue to tissue ratio at 72 h [2, 6]: 4.58 ± 0.68 | tissue to tissue ratio at 120 h [2, 6]: 6.6 ± 1.14 | tissue uptake at 1 h ([2]; PC-3 tumor, 100 ug, Uptake in PC-3 tumor, 1 h blocked (co-injected with 100 µg [D-Phe6,Leu-NHEt13,des-Met14]Bombesin(6-14))): 2.99 ± 0.42 %ID/g | tissue uptake at 1 h ([2]; PC-3 tumor, Uptake in PC-3 tumor, 1 h post-injection): 11 ± 1.03 %ID/g | tissue uptake at 4 h [2, 7]: 10.1 ± 1.4 %ID/g | tissue uptake at 24 h [2, 7]: 6.9 ± 1.34 %ID/g | tissue uptake at 72 h [2, 7]: 4.72 ± 1.42 %ID/g | tissue uptake at 120 h [2, 7]: 2.23 ± 0.33 %ID/g | tissue uptake at 1 h ([2]; adrenal glands, 100 ug, Uptake in adrenal glands, 1 h blocked (co-injected with 100 µg [D-Phe6,Leu-NHEt13,des-Met14]Bombesin(6-14))): 0.54 ± 0.24 %ID/g | tissue uptake at 24 h [2, 8]: 0.98 ± 0.18 %ID/g | tissue uptake at 120 h [2, 8]: 0.25 ± 0.05 %ID/g | tissue uptake at 1 h ([2]; blood, 100 ug, Uptake in blood, 1 h blocked (co-injected with 100 µg [D-Phe6,Leu-NHEt13,des-Met14]Bombesin(6-14))): 0.58 ± 0.16 %ID/g | tissue uptake at 4 h ([2]; blood, Uptake in blood): 0.04 ± 0.01 %ID/g | tissue uptake at 24 h ([2]; blood, Uptake in blood): 0.01 %ID/g | tissue uptake at 1 h ([2]; bone, 100 ug, Uptake in bone, 1 h blocked (co-injected with 100 µg [D-Phe6,Leu-NHEt13,des-Met14]Bombesin(6-14))): 0.08 ± 0.02 %ID/g | tissue uptake at 4 h ([2]; bone, Uptake in bone): 0.05 ± 0.03 %ID/g | tissue uptake at 24 h ([2]; bone, Uptake in bone): 0.02 ± 0.01 %ID/g | tissue uptake at 72 h ([2]; bone, Uptake in bone): 0.02 ± 0.01 %ID/g | tissue uptake at 120 h ([2]; bone, Uptake in bone): 0.01 %ID/g | tissue uptake at 1 h ([2]; brain, 100 ug, Uptake in brain, 1 h blocked (co-injected with 100 µg [D-Phe6,Leu-NHEt13,des-Met14]Bombesin(6-14))): 0.02 %ID/g | tissue uptake at 1 h ([2]; fat, 100 ug, Uptake in fat, 1 h blocked (co-injected with 100 µg [D-Phe6,Leu-NHEt13,des-Met14]Bombesin(6-14))): 0.07 ± 0.02 %ID/g | tissue uptake at 1 h ([2]; fat, Uptake in fat, 1 h post-injection): 0.07 ± 0.02 %ID/g | tissue uptake at 4 h ([2]; fat, Uptake in fat): 0.01 %ID/g | tissue uptake at 24 h ([2]; fat, Uptake in fat): 0.01 %ID/g | tissue uptake at 1 h ([2]; heart, 100 ug, Uptake in heart, 1 h blocked (co-injected with 100 µg [D-Phe6,Leu-NHEt13,des-Met14]Bombesin(6-14))): 0.2 ± 0.06 %ID/g | tissue uptake at 1 h ([2]; heart, Uptake in heart, 1 h post-injection): 0.22 ± 0.01 %ID/g | tissue uptake at 72 h ([2]; heart, Uptake in heart): 0.02 %ID/g | tissue uptake at 120 h ([2]; heart, Uptake in heart): 0.01 %ID/g | tissue uptake at 1 h ([2]; kidneys, 100 ug, Uptake in kidneys, 1 h blocked (co-injected with 100 µg [D-Phe6,Leu-NHEt13,des-Met14]Bombesin(6-14))): 3.56 ± 0.77 %ID/g | tissue uptake at 1 h ([2]; kidneys, Uptake in kidneys, 1 h post-injection): 3.77 ± 0.58 %ID/g | tissue uptake at 4 h ([2]; kidneys, Uptake in kidneys): 2.67 ± 0.49 %ID/g | tissue uptake at 24 h ([2]; kidneys, Uptake in kidneys): 1.46 ± 0.42 %ID/g | tissue uptake at 72 h ([2]; kidneys, Uptake in kidneys): < 1 %ID/g | tissue uptake at 120 h ([2]; kidneys, Uptake in kidneys): 0.2 ± 0.02 %ID/g | tissue uptake at 1 h ([2]; large intestine, Uptake in large intestine, 1 h post-injection): 1 ± 0.15 %ID/g | tissue uptake at 4 h [2, 9]: 1.15 ± 0.38 %ID/g | tissue uptake at 24 h [2, 9]: 0.44 ± 0.11 %ID/g | tissue uptake at 1 h ([2]; liver, 100 ug, Uptake in liver, 1 h blocked (co-injected with 100 µg [D-Phe6,Leu-NHEt13,des-Met14]Bombesin(6-14))): 0.26 ± 0.05 %ID/g | tissue uptake at 24 h ([2]; liver, Uptake in liver): 0.13 ± 0.04 %ID/g
